Experimental findings from PMC9571264 (Molecules, 2022) are described below.

One assay deals with Leukemia Cancer HL60. The assay is described as follows: MTT cytotoxicity assay, HL60. It counts as cell-based. The note with it: Homo sapiens, HL-60, 48 h, read-out: IC50 (µM) ± SEM, Leukemia Cancer HL60. The procedure:
(§1) Cytotoxic activities of the synthesized derivatives were screened against leukemia (HL60), liver (HepG2), breast (MCF-7), and lung (A549) cancer cell lines and non-cancerous THLE2 and WISH cells at different concentrations [0.01–100 µM] for 48 h using the MTT assay (Table 1).
(§2) Human promyelocytic leukemia ”HL-60”, human hepatocellular carcinoma “HepG2”, human breast cancer “MCF-7”, human lung cancer “A549” cell lines, and two normal cell lines, THLE-2 as normal adult liver epithelial cells and WISH as normal epithelial cells, were obtained from American Type Culture Collection “Rockville, MD, USA”.
(§3) According to the manufacturer’s protocol, the cells were seeded in 96-well plates at a concentration of 5 × 10^4 cells per well (200 µL). Different concentrations of the tested compounds were used to test the cytotoxicity. […] A non-linear regression of curve fit was used to calculate the IC50.

Another assay deals with Liver Cancer HepG2. The assay is described as follows: MTT cytotoxicity assay, HepG2. The class given is cell-based, human. The note with it: Homo sapiens, HepG2, 48 h, read-out: IC50 (µM) ± SEM, Liver Cancer HepG2. As to the method:
as §1, §2, §3

A further assay relates to Breast Cancer MCF-7. The assay is described as follows: MTT cytotoxicity assay, MCF-7. The class given is cell-based. The note with it: Homo sapiens, MCF7, 48 h, read-out: IC50 (µM) ± SEM, Breast Cancer MCF-7. The procedure: as §1, §2, §3
A further assay relates to Normal Liver THLE2. The assay is described as follows: MTT cytotoxicity assay, normal THLE2. It counts as cell-based. The note with it: Homo sapiens, THLE-2, 48 h, read-out: IC50 (µM) ± SEM, Normal Liver THLE2. The procedure: as §1, §2, §3
For a further assay, the system named is Normal WISH Cells. The assay is described as follows: MTT cytotoxicity assay, normal WISH. It counts as cell-based. The note with it: 48 h, read-out: IC50 (µM) ± SEM, Normal WISH Cells. The procedure:
as §1, §2, §3

A further assay concerns HepG2 cancer cells. The assay is described as follows: DNA content-flow cytometry cell-cycle analysis, HepG2. It counts as cell-based, human. The note with it: HepG2, IC50 = 13.14 μM, 48 h. As to the method: (§4) (See supplementary information for the detailed methodology of flow cytometric analyses, including “FITC/Annexin-V-FITC/PI differential apoptosis/necrosis”, “DNA content-flow cytometry aided cell cycle”, and “Caspase 3/7 green flow cytometry”).
Supplementary materials for detailed methodology […]
2.2.2.1.2. DNA Content-Flow Cytometry Aided Cell Cycle Analysis
After treatment with test compounds for 48 h, cells (10^5 cells) are collected by trypsinization and washed twice with ice-cold PBS (pH 7.4). Cells are re-suspended in two milliliters of 60% ice-cold ethanol and incubated at 4 °C for 1 h for fixation. Fixed cells are washed twice again with PBS (pH 7.4) and re-suspended in 1 mL of PBS containing 50 μg/mL RNAase A and 10 μg/mL propidium iodide (PI). After 20 min of incubation in dark at 37 C, cells are analyzed for DNA contents using flow cytometry analysis using FL2 (λex/em 535/617 nm) signal detector (ACEA Novocyte™ flowcytometer, ACEA Biosciences Inc., San Diego, CA, USA). For each sample, 12,000 events are acquired. Cell cycle distribution is calculated using ACEA NovoExpress™ software (ACEA Biosciences Inc., San Diego, CA, USA).
2.2.2.1.3. Caspase- 3/7 green flow cytometry assay
The ability of compounds 4 and 9 to induce the enzymatic activities of caspase 3/7 in HL60 and HepG2 respectively were assayed using caspase 3/7 green flow cytometry assay method. Briefly, control and the tested compounds treated cells (2.5x10^5/mL) were rinsed with ice cold PBS, cell lysates were prepared and subsequently protein

The subject of assay [1] is caspases 3/7 in HepG2 cells. The assay is described as follows: Caspase 3/7 green flow cytometry assay, HepG2. It counts as cell-based, human. The note with it: HepG2, 48 h; untreated cells 1.32%.
Source text: Apoptosis is a form of cell death programmed by the family of cysteine protease. In response to the various cell death stimuli, a large irreversible proteolytic cascade is triggered and subsequently generated. The effector caspase activity has been evaluated to determine the apoptotic pathway initiated by the tested compounds using the “Cell Event™ Caspase 3/7 Green Detection kit”.
as §4
Supplementary materials for detailed methodology
2.2.2.1. Flow cytometric analysis
2.2.2.1.1. FITC/Annexin-V-FITC/PI Differential Apoptosis/Necrosis Assessment Apoptosis and necrosis cell populations are determined using Annexin V-FITC apoptosis detection kit (Abcam Inc., Cambridge Science Park, Cambridge, UK) coupled with 2 fluorescent channels flowcytometry. […] After staining, cells are injected via ACEA Novocyte™ flowcytometer (ACEA Biosciences Inc., San Diego, CA, USA) and analyzed for FITC and PI fluorescent signals using FL1 and FL2 signal detector, respectively (λex/em 488/530 nm for FITC and λex/em 535/617 nm for PI). […]
concentration was measured. […]

Another assay concerns HepG2 cells. The assay is described as follows: Agarose gel electrophoresis DNA fragmentation, HepG2. It counts as cell-based, human.

The structures appear in SMILES notation.

In the case of `Cc1c(Br)c(=O)oc2c(Br)c(OC(=O)/C=C/c3ccccc3)c(Br)cc12` [Compound 8b, (2E)-3,6,8-Tribromo-4-methyl-2-oxo-2H-chromen-7-yl Cinnamate], the IC50 amounted to 69 ± 2.14 µM in the assay with Leukemia Cancer HL60; 13.1 ± 0.22 µM with Liver Cancer HepG2; 7.35 ± 0.67 µM in the assay on Breast Cancer MCF-7; 86.5 ± 2.16 µM with Normal Liver THLE2; 96.8 ± 3.21 µM in the assay on Normal WISH Cells. In the assay with HepG2 cancer cells (control 1.71%), this molecule returned a pre-G1 cell population of 12.56%. Moreover, in the assay on HepG2 cancer cells (control 12.34%), the G2/M cell population was found to be 26.05%. The G0/G1 cell population with HepG2 cancer cells (control 53.6%) is given as 42.53%. The “Apoptotic cells due to active caspases 3/7” value in assay [1] turned out to be 6.09%. In the assay on HepG2 cells, the DNA fragmentation entry is reported as “Loss of intact DNA fragments”.
